Measurements as given in US20230414593A1, “EZH2 INHIBITION THERAPIES FOR THE TREATMENT OF ANDROGEN RECEPTOR MUTATED PROSTATE CANCERS” (Constellation Pharmaceuticals, Inc, priority 2020, published 2023).

Tested on: LNCaP-FGC tumor cells
Assay: Tumor growth inhibition in prostate cancer LNCaP model with AR mutation H875Y
Format: in vivo, mouse
Conditions: 75 mg/kg orally once daily, LNCaP-FGC subcutaneous tumors, Cmp. 1 compared with Cmp. 2, FIG. 2
Description: (R)-7-chloro-2-((1r,4R)-4-(3-methoxyazetidin-1-yl)cyclohexyl)-2,4-dimethyl-N-((6-methyl-4-(methylthio)-2-oxo-1,2-dihydropyridin-3-yl)methyl)benzo[d][1,3]dioxole-5-carboxamide and R—N-((4-methoxy-6-methyl-2-oxo-1,2-dihydropyridin-3-yl)methyl)-2-methyl-1-(1-(1-(2,2,2-trifluoroethyl)piperidin-4-yl)ethyl)-1H-indole-3-carboxamide were examined in a prostate cancer LNCaP Model with AR mutation H875Y.
A fixed dose of 75 mg/kg was used for both compounds. Each mouse was inoculated subcutaneously at the right flank with LNCaP-FGC tumor cells (10×10^6) in 0.1 ml of PBS mixed with RPMI-1640:Matrigel (50:50) for tumor development. The treatments started when the average tumor volume reached approximately 158 mm^3. The test articles were administered orally once daily. The tumor size was used for the calculation of tumor growth inhibition (TGI)=[1−(T1−T0)/(C1−C0)]×100, where C1=mean tumor volume of control mice at time t, T1=mean tumor volume of treated mice at time t, C0=mean tumor volume of control mice at time 0, and T0=mean tumor volume of treated mice at time 0].

COC1CN([C@H]2CC[C@H]([C@@]3(C)Oc4c(Cl)cc(C(=O)NCc5c(SC)cc(C)[nH]c5=O)c(C)c4O3)CC2)C1 [Cmp. 1, (R)-7-chloro-2-((1r,4R)-4-(3-methoxyazetidin-1-yl)cyclohexyl)-2,4-dimethyl-N-((6-methyl-4-(methylthio)-2-oxo-1,2-dihydropyridin-3-yl)methyl)benzo[d][1,3]dioxole-5-carboxamide]
tumor growth inhibition (TGI), relative tumor volume % reduction: more efficacious at tumor growth inhibition | tumor growth inhibition (TGI), relative tumor volume % reduction (listed as (R)-7-chloro-2-(1r,4R)-4-(3-methoxyazetidin-1-yl)cyclohexyl)-2,4-dimethyl-N-((6)): more efficacious
